Test [1] has as its target T1, MAGL (Mus musculus, UniProt O35678).
T1 sequence (O35678 1-303): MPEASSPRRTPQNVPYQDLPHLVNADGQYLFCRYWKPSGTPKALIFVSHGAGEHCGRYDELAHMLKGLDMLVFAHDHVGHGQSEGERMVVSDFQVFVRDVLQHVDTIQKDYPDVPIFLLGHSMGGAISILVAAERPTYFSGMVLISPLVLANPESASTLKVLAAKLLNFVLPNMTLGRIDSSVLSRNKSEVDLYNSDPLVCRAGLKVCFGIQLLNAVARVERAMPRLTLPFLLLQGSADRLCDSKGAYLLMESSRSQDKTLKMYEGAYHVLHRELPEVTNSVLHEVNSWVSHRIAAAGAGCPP
In words: In vitro competitive activity-based protein profiling, MAGL, mouse. Conditions: read-out: MAGL % inh. 1 μM (mouse).
Experimental: Biological Evaluation In Vitro Competitive Activity-Based Protein Profiling.
Proteomes (mouse brain membrane fraction for mouse assays; human prefrontal cortex membrane fractions for human assays) (50 mL, 1.0 mg/mL total protein concentration) were preincubated with varying concentrations of inhibitors at 37° C. After 30 min, FP-Rh (1.0 mL, 50 mM in DMSO) was added and the mixture was incubated for another 30 min at 37° C. Reactions were quenched with SDS loading buffer (15 μL—4λ) and run on SDS-PAGE.

The target in test [2] is T2, MAGL (Homo sapiens, UniProt Q99685).
T2 sequence (Q99685 1-303): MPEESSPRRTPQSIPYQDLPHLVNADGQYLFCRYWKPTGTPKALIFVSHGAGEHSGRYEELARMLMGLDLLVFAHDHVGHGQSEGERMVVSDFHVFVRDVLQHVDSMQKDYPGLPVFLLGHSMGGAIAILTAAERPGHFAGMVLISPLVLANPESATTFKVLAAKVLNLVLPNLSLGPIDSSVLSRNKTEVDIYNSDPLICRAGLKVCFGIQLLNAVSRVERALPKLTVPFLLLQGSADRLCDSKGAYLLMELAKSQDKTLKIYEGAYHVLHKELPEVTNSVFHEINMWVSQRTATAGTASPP
Nature of the test: In vitro competitive activity-based protein profiling, MAGL, human. The following applies: read-out: MAGL % inh. 1 μM (human).

The target of test [3] is T1, MAGL. Nature of the test: Mouse brain proteomes from inhibitor treated mice (oral gavage, sacrificed 4 h after administration). Type of test: in vivo. Further details: mouse brain membrane fraction for mouse assays; from tissue; host or cells: mouse brain (membrane fraction in vitro; brain proteomes of treated C57Bl/6J mice in vivo). Conditions: 5 mg/kg oral gavage, brain proteome 4 h after administration, read-out: MAGL % inh. 5 mg/kg (mouse).

Each structure is given as a SMILES string. Where two headings read alike, the source gives them in different places. Where only a bound is given, the exact number is not on record here.

In the case of `CN(Cc1cccc(C(F)(F)F)c1N1CCCC1)C1(C)CCN(C(=O)n2ccc(C(=O)O)n2)CC1` [Example 382, 1-(4-methyl-4-(methyl(2-(pyrrolidin-1-yl)-3-(trifluoromethyl)benzyl)amino)piper-idine-1-carbonyl)-1H-pyrazole-3-carboxylic acid], the inhibition at 1 µM at MAGL [1] and on MAGL [2] was more than 75% throughout. The inhibition at 5 mg/kg on MAGL [3] is 0 to 25%.

In the case of `Cc1cc(-c2ccccc2)ccc1CN1CCN(C(=O)n2ccc(C(=O)O)n2)[C@H](C)C1` [Example 245, (R)-1-(2-methyl-4-((3-methyl-[1,1′-biphenyl]-4-yl)methyl)piperazine-1-carbonyl)-1H-pyrazole-3-carboxylic acid], the inhibition at 1 µM on MAGL [1] and on MAGL [2] was more than 75% each time. Besides, the inhibition at 5 mg/kg on MAGL [3] lay within 0 to 25%.

Regarding `O=C(O)c1ccn(C(=O)N2CCN(Cc3cc(Cl)cc(-c4cncnc4)c3)CC2)n1` [Example 269, 1-(4-(3-chloro-5-(pyrimidin-5-yl)benzyl)piperazine-1-carbonyl)-1H-pyrazole-3-carboxylic acid], the inhibition at 1 µM on MAGL [1] and at MAGL [2] was more than 75% each time. In addition, at MAGL [3], the inhibition at 5 mg/kg lay within 0 to 25%.

Consider `CN(Cc1cc(C(F)(F)F)ccc1N1CCCC1)C1(C)CCN(C(=O)n2ccc(C(=O)O)n2)CC1` [Example 384, 1-(4-methyl-4-(methyl(2-(pyrrolidin-1-yl)-5-(trifluoromethyl)benzyl)amino)piper-idine-1-carbonyl)-1H-pyrazole-3-carboxylic acid], for which the inhibition at 1 µM on MAGL [1] and at MAGL [2] was more than 75% in each case. Besides, at MAGL [3], the inhibition at 5 mg/kg is 0 to 25%.

In the case of `C[C@@H]1CN(Cc2ccc(C(F)(F)F)cc2N2CCCC2)CCN1C(=O)n1ccc(C(=O)O)n1` [Example 327, (R)-1-(2-methyl-4-(2-(pyrrolidin-1-yl)-4-(trifluoromethyl)benzyl)piperazine-1-carbonyl)-1H-pyrazole-3-carboxylic acid], the inhibition at 1 µM on MAGL [1] and at MAGL [2] was more than 75% throughout. The inhibition at 5 mg/kg at MAGL [3] fell in the range of 0 to 25%.

In the case of `O=C(O)c1ccn(C(=O)N2CCC(Oc3ccc(C(F)(F)F)cc3N3CCCC3)CC2)n1` [Example 307, 1-(4-(2-(pyrrolidin-1-yl)-4-(trifluoromethyl)phenoxy)piperidine-1-carbonyl)-1H-pyrazole-3-carboxylic acid], the inhibition at 1 µM at MAGL [1] and at MAGL [2] was more than 75% in each case. Also, the inhibition at 5 mg/kg at MAGL [3] lay within 0 to 25%.

For `O=C(O)c1nn(C(=O)N2CCC3(CCN(Cc4cc(Cl)cc(C(F)(F)F)c4)C3)CC2)cc1Cl` [Example 388, 4-chloro-1-(2-(3-chloro-5-(trifluoromethyl)benzyl)-2,8-diazaspiro[4.5]decane-8-carbonyl)-1H-pyrazole-3-carboxylic acid], the inhibition at 1 µM at MAGL [1] and on MAGL [2] was more than 75% each time. The inhibition at 5 mg/kg on MAGL [3] fell in the range of 0 to 25%.

On to `O=C(O)c1nn(C(=O)N2CCC3(CCN(Cc4cccc(Cl)c4C(F)(F)F)C3)CC2)cc1Cl` [Example 26, 4-Chloro-1-(2-(3-chloro-2-(trifluoromethyl)benzyl)-2,8-diazaspiro[4.5]decane-8-carbonyl)-1H-pyrazole-3-carboxylic Acid], for which the inhibition at 1 µM on MAGL [1] and on MAGL [2] was more than 75% in each case. In addition, the inhibition at 5 mg/kg at MAGL [3] fell in the range of 0 to 25%.

In the case of `C[C@H]1CN(Cc2cc(F)cc(Oc3ccc(Cl)cc3)c2)CCN1C(=O)n1ccc(C(=O)O)n1` [Example 347, (S)-1-(4-(3-(4-chlorophenoxy)-5-fluorobenzyl)-2-methylpiperazine-1-carbonyl)-1H-pyrazole-3-carboxylic acid], the inhibition at 1 µM at MAGL [1] and at MAGL [2] was more than 75% throughout. For the same compound, the inhibition at 5 mg/kg on MAGL [3] fell in the range of 0 to 25%.

Turning to `CN(Cc1ccc(C(F)(F)F)cc1N1CCCCC1)C1(C)CCN(C(=O)n2ccc(C(=O)O)n2)CC1` [Example 397, 1-(4-methyl-4-(methyl(2-(piperidin-1-yl)-4-(trifluoromethyl)benzyl)amino)piper-idine-1-carbonyl)-1H-pyrazole-3-carboxylic acid], the inhibition at 1 µM on MAGL [1] and on MAGL [2] was more than 75% in each case. The inhibition at 5 mg/kg on MAGL [3] (C57Bl/6J mice) was 0 to 25%.

Turning to `CN(Cc1cc(N2CCCC2)cc(C(F)(F)F)c1)C1(C)CCN(C(=O)n2ccc(C(=O)O)n2)CC1` [Example 381, 1-(4-methyl-4-(methyl(3-(pyrrolidin-1-yl)-5-(trifluoromethyl)benzyl)amino)piper-idine-1-carbonyl)-1H-pyrazole-3-carboxylic acid], the inhibition at 1 µM on MAGL [1] and at MAGL [2] was more than 75% throughout. Besides, at MAGL [3], the inhibition at 5 mg/kg lay within 0 to 25%.

As to `C[C@@H]1CN(Cc2ccc(-c3ccccc3)cc2Cl)CCN1C(=O)n1ccc(C(=O)O)n1` [Example 291, (R)-1-(4-((3-chloro-[1,1′-biphenyl]-4-yl)methyl)-2-methylpiperazine-1-carbonyl)-1H-pyrazole-3-carboxylic acid], the inhibition at 1 µM at MAGL [1] and on MAGL [2] was more than 75% in each case. Further, the inhibition at 5 mg/kg on MAGL [3] is 25 to 50%.

Consider `CC(C)(O)COc1cccc(O[C@H]2C[C@@H]3CN(C(=O)n4ccc(C(=O)O)n4)C[C@@H]3C2)c1Cl` [Example 451, 1-(trans-5-(2-chloro-3-(2-hydroxy-2-methylpropoxy)phenoxy)octahydro-cyclopenta[c]pyrrole-2-carbonyl)-1H-pyrazole-3-carboxylic acid], for which the inhibition at 1 µM at MAGL [1] and on MAGL [2] was more than 75% in each case. Besides, at MAGL [3] (C57Bl/6J mice), the inhibition at 5 mg/kg fell in the range of 0 to 25%.

In the case of `C[C@H]1CN(Cc2cccc(Oc3ccc(Cl)cc3)c2)CCN1C(=O)n1ccc(C(=O)O)n1` [Example 311, (S)-1-(4-(3-(4-chlorophenoxy)benzyl)-2-methylpiperazine-1-carbonyl)-1H-pyrazole-3-carboxylic acid], the inhibition at 1 µM at MAGL [1] and at MAGL [2] was more than 75% in each case. The inhibition at 5 mg/kg at MAGL [3] lay in the range of 0 to 25%.

`O=C(O)c1ccn(C(=O)N2C[C@H]3C[C@H](Oc4cc(Cl)cc(Cl)c4)C[C@H]3C2)n1` [Example 230, 1-(trans-5-(3,5-dichlorophenoxy)octahydrocyclopenta [c]pyrrole-2-carbonyl)-1H-pyrazole-3-carboxylic acid]: the inhibition at 1 µM at MAGL [1] and at MAGL [2] was more than 75% in each case. Besides, on MAGL [3], the inhibition at 5 mg/kg was 0 to 25%.

With `O=C(O)c1ccn(C(=O)N2CCC(Oc3cc(N4CCCC4)cc(C(F)(F)F)c3)CC2)n1` [Example 308, 1-(4-(3-(pyrrolidin-1-yl)-5-(trifluoromethyl)phenoxy)piperidine-1-carbonyl)-1H-pyrazole-3-carboxylic acid], the inhibition at 1 µM at MAGL [1] and on MAGL [2] was more than 75% in each case. Further, at MAGL [3], the inhibition at 5 mg/kg is 0 to 25%.

As for `C[C@H]1CN(Cc2ccc(C(F)(F)F)cc2N2C3CCC2COC3)CCN1C(=O)n1ccc(C(=O)O)n1` [Example 395, 1-((2S)-4-(2-(3-oxa-8-azabicyclo[3.2.1]octan-8-yl)-4-(trifluoromethyl)benzyl)-2-methylpiperazine-1-carbonyl)-1H-pyrazole-3-carboxylic acid], the inhibition at 1 µM at MAGL [1] and at MAGL [2] was more than 75% throughout. In addition, the inhibition at 5 mg/kg on MAGL [3] (C57Bl/6J mice) is 0 to 25%.

`C[C@H]1CN(Cc2ccc(C(F)(F)F)cc2N2CCCC2)CCN1C(=O)n1ccc(C(=O)O)n1` [Example 328, (S)-1-(2-methyl-4-(2-(pyrrolidin-1-yl)-4-(trifluoromethyl)benzyl)piperazine-1-carbonyl)-1H-pyrazole-3-carboxylic acid]: the inhibition at 1 µM at MAGL [1] and on MAGL [2] was more than 75% throughout. Also, the inhibition at 5 mg/kg at MAGL [3] lay within 0 to 25%.

Consider `C[C@@H]1CC[C@@H](C)N1c1cc(C(F)(F)F)ccc1CN1CCN(C(=O)n2ccc(C(=O)O)n2)CC1` [Example 359, 1-(4-(2-((2R,5R)-2,5-dimethylpyrrolidin-1-yl)-4-(trifluoromethyl)benzyl)piperazine-1-carbonyl)-1H-pyrazole-3-carboxylic acid], for which the inhibition at 1 µM at MAGL [1] and at MAGL [2] was more than 75% in each case. The inhibition at 5 mg/kg on MAGL [3] was 0 to 25%.

Take `O=C(O)c1ccn(C(=O)N2C[C@H]3C[C@H](Oc4cccc(-c5cccnc5)c4)C[C@H]3C2)n1` [Example 241, 1-(trans-5-(3-(pyridin-3-yl)phenoxy)octa-hydrocyclopenta[c]pyrrole-2-carbonyl)-1H-pyrazole-3-carboxylic acid]: the inhibition at 1 µM on MAGL [1] and at MAGL [2] was more than 75% in each case. Moreover, the inhibition at 5 mg/kg at MAGL [3] was 0 to 25%.

Source of the values: patent US10266497B2 (ABIDE THERAPEUTICS, INC., priority 2017, dated 2019).
